Laboratory results reported in patent US6809193B2, “Antisense oligonucleotide compositions and methods for the modulation of JNK proteins” (ISIS Pharmaceuticals, Inc., priority 1997, dated 2004).
Strand notation (5' to 3'): a small letter for the sugar, then the base; units joined by * are phosphorothioate-linked, units joined directly phosphodiester-linked; [ ] holds rarer units or linkages, { } end groups; capitals alone tell only the bases. Where a SMILES comes first, the peptide text is derived from it. The star is where a group is joined. e = 2'-O-(2-methoxyethyl) (MOE); [5mC] = 5-methylcytosine; Cbz = O=C(OCc1ccccc1)*; d = 2'-deoxy (DNA); CH2F = FC*

Legend:
JNK1 mRNA = assay: Northern assay, JNK1 mRNA expression in A549 cells; format: cell-based, human; conditions: for inhibition of JNK1 mRNA expression: 400 nM, Northern assay, Table 5; for RNA % Inhibition: JNK1 mRNA
JNK2 mRNA = assay: Northern assay, JNK2 mRNA expression in A549 cells; format: cell-based, human; conditions: for dose- and sequence-dependent response on JNK2 mRNA levels: A549 cells, 50, 100, 200 and 400 nM
Method: (§1) In order to evaluate the activity of potential JNK-modulating oligonucleotides, human lung carcinoma cell line A549 (American Type Culture Collection, 10801 University Boulevard, Manassas, Va. 20110-2209, No. ATCC CCL-185) cells or other cell lines as indicated in the Examples, were grown and treated with oligonucleotides or control solutions as detailed below. After harvesting, cellular extracts were prepared and examined for specific JNK mRNA levels or JNK protein levels (i.e., Northern or Western assays, respectively). In all cases, “% expression” refers to the amount of JNK-specific signal in an oligonucleotide-treated cell relative to an untreated cell (or a cell treated with a control solution that lacks oligonucleotide), and “% inhibition” is calculated as
100%−%Expression=%Inhibition.
The mRNA expression of each JNK protein was determined by using a nucleic acid probe specifically hybridizable thereto. Nucleic acid probes specific for JNK1, JNK2 and JNK3 are described in Examples 3, 4 and 5, respectively. The probes were radiolabelled by means well known in the art (see, e.g., Short Protocols in Molecular Biology, 2nd Ed., Ausubel et al., Eds., John Wiley & Sons, New York, 1992, pages 3-11 to 2-3-44 and 4-17 to 4-18; Ruth, Chapter 6 In: Methods in Molecular Biology, Vol. 26: Protocols for Oligonucleotide Conjugates, Agrawal, ed., Humana Press Inc., Totowa, N.J., 1994, pages 167-185; and Chapter 10 In: Molecular Cloning: A Laboratory Manual, 2nd Ed., Sambrook et al., Eds., pages 10.1-10.70). The blots were stripped and reprobed with a ^32P-labeled glyceraldehyde 3-phosphate dehydrogenase (G3PDH) probe (Clontech Laboratories, Inc., Palo Alto, Calif.) in order to confirm equal loading of RNA and to allow the levels of JNK transcripts to be normalized with regard to the G3PDH signals.
A549 cells were grown in T-75 flasks until 80-90% confluent. At this time, the cells were washed twice with 10 mL of media (DMEM), followed by the addition of 5 mL of DMEM containing 20 μg/mL of LIPOFECTIN™ (i.e., 1:1 (w/w) DOTMA/DOPE, Life Technologies, Gaithersburg, Md.; DOTMA=N-[1-(2,3-dioleyoxy)propyl]-N,N,N-trimethylammonium chloride; DOPE=dioleoyl phosphatidylethanolamine). The oligonucleotides were added from a 10 μM stock solution to a final concentration of 400 nM, and the two solutions were mixed by swirling the flasks. As a control, cells were treated with LIPOFECTIN™ without oligonucleotide under the same conditions and for the same times as the oligonucleotide-treated samples. After 4 hours at 37° C., the medium was replaced with fresh DMEM containing 10% serum. The cells were allowed to recover for 18 hours. Total cellular RNA was then extracted in guanidinium, subject to gel electrophoresis and transferred to a filter according to techniques known in the art (see, e.g., Chapter 7 In: Molecular Cloning: A Laboratory Manual, 2nd Ed., Sambrook et al., Eds., pages 7.1-7.87, and Short Protocols in Molecular Biology, 2nd Ed., Ausubel et al., Eds., John Wiley & Sons, New York, 1992, pages 2-24 to 2-30 and 4-14 to 4-29). Filters were typically hybridized overnight to a probe specific for the particular JNK gene of interest in hybridization buffer (25 mM KPO4, pH 7.4; 5×SSC; 5× Denhardt's solution, 100 μg/ml Salmon sperm DNA and 50% formamide) (Alahari et al., Nucl. Acids Res., 1993, 21, 4079). This was followed by two washes with 1×SSC, 0.1% SDS and two washes with 0.25×SSC, 0.1% SDS. Hybridizing bands were visualized by exposure to X-OMAT AR film and quantitated using a PHOSPHORIMAGER™ essentially according to the manufacturer's instructions (Molecular Dynamics, Sunnyvale, Calif.).
In initial screenings of a set of oligonucleotides derived from the JNK2 sequence (Table 9) for biological activity, a cDNA clone of JNK2 (Kallunki et al., Genes & Development, 1994, 8, 2996) was radiolabeled and used as a JNK2-specific probe in Northern blots. […]

HUVEC = assay: Apoptosis in HUVEC, percent hypodiploid cells by flow cytometry; format: cell-based, human; conditions: HUVEC treated with JNK2 oligonucleotide plus the agent
MDA-MB-231 tumors = assay: MDA-MB-231 human tumor xenograft in nude mice; format: in vivo; conditions: 25 mg/kg intravenous once daily; for tumor growth compared to the saline control: MDA-MB-231 tumors; for Mean Tumor Volume (cm^3): nude mice
Text: Approximately 5×10^6 breast adenocarcinoma cells (cell line MDA-MB-231; American Type Culture Collection, 10801 University Boulevard, Manassas, Va. 20110-2209, No. ATCC HTB-26) were implanted subcutaneously in the right inner thigh of nude mice (n=6 for each of three sets of mice). Oligonucleotides ISIS 15346 (JNK1, SEQ ID NO:16) and 15353 (JNK2, SEQ ID NO:31) were suspended in saline and administered once daily to two sets of mice on the first day the tumor volume was about 100 mm^3. A saline-only (0.9% NaCl) solution was given to a third set of animals as a control. Oligonucleotides were given by intravenous injection at a dosage of 25 mg/kg. Tumor size was measured and tumor volume was calculated on days 12, 19, 26 and 33 following tumor cell inoculation.

JNK1 protein = assay: Western assay, JNK1 protein levels in A549 cells; format: cell-based, human; conditions: t = 72 h
Method: as §1
A549 cells were grown and treated with oligonucleotides as described above. […] The amount of each JNK protein was determined by using a primary antibody that specifically recognizes the appropriate JNK protein. […]
In order to assess the effect of oligonucleotides targeted to JNK1 mRNAs on JNK1 protein levels, Western assays were performed essentially as described above in Example 2, with the following exception(s) and/or modification(s). […] The samples from t=48 h and t=72 h were analyzed using the Northern and Western assays described above.

JNK activity = assay: TNFa-induced JNK activity in HUVEC (GST-c-Jun phosphorylation); format: cell-based, human; conditions: 100 nM, 5 ng/ml TNFa 15 minutes, compared to a control oligonucleotide

Compound: CTC-TCT-GTA-GGC-CCG-CTT-GG (antisense dC*dT*dC*dT*dC*dT*dG*dT*dA*dG*dG*dC*dC*dC*dG*dC*dT*dT*dG*dG) [ISIS 12539, human JNK1 antisense, fully P=S and fully 2′-deoxy]
- dose- and sequence-dependent response on JNK1 mRNA levels (JNK1 mRNA; A549 cells, 50, 100, 200 and 400 nM): dependent on dose in an approximately linear fashion
- % Inhibition (JNK1 mRNA; JNK1 mRNA time course, 48 h): greater than or equal to 80%
- dose- and sequence-dependent response on JNK2 mRNA levels (JNK2 mRNA): dependent on dose in an approximately linear fashion

Compound: COC(=O)C[C@H](NC(=O)[C@H](C)NC(=O)[C@@H](NC(=O)OCc1ccccc1)C(C)C)C(=O)CF [z-FAD.fmk, z-VAD.fmk] (Cbz-Val-Ala-Asp(OMe)-CH2F)
- effect on JNK2 oligonucleotide-induced cell death (apoptosis) (HUVEC): decreased

Compound: 15346 (antisense CTCTCTGTAGGCCCGCTTGG; gapmer, 2'-MOE wings, phosphorothioate, chemistry not fully specified) [compound 15346]
- tumor growth compared to the saline control (MDA-MB-231 tumors): inhibited tumor growth compared to the saline control
- inhibition of JNK1 mRNA expression (JNK1 mRNA): at least 88%
- Protein % Inhibition (JNK1 protein): 74.3%

Compound: C[C@@H]1C[C@@H]([C@H](O)CC2CC(=O)NC(=O)C2)C(=O)[C@@H](C)C1 [cyclohexamide]
- effect on JNK2 oligonucleotide-induced cell death (apoptosis) (HUVEC): had no effect on apoptosis

Compound: C^sT^sC^sT^sC^sT^sG^sT^sA^sG^sG^sC^sC^sC^sG^sC^sT^sT^sG^sG (antisense CTCTCTGTAGGCCCGCTTGG; all phosphorothioate, sugars by position and methylation of C not given here) [ISIS 15346, JNK1 gapmer: P=S, 2′-MOE wings; P=S, 2′-deoxy core]
- Mean Tumor Volume (cm^3) (MDA-MB-231 tumors; Day 12 following tumor cell inoculation): 0.122 cm^3
- Mean Tumor Volume (cm^3) (MDA-MB-231 tumors; Day 19): 0.255 cm^3
- Mean Tumor Volume (cm^3) (MDA-MB-231 tumors; Day 26): 0.400 cm^3
- Mean Tumor Volume (cm^3) (MDA-MB-231 tumors; Day 33): 0.638 cm^3
- inhibition of TNFa-induced JNK activity (JNK activity): approximately 70%

Compound: 15353 (antisense eG*eT*e[5mC]*e[5mC]*eG*dG*dG*dC*dC*dA*dG*dG*dC*dC*eA*eA*eA*eG*eT*e[5mC]) [compound 15353]
- tumor growth compared to the saline control (MDA-MB-231 tumors): inhibited tumor growth compared to the saline control
- inhibition of JNK2 mRNA expression (JNK2 mRNA; 400 nM, Northern assay, Table 12): approximately 80%

Compound: 15347 (antisense CTCTCTGTAGGCCCGCTTGG; gapmer, 2'-MOE P=O wings, P=S deoxy core, chemistry not fully specified) [compound 15347]
- inhibition of JNK1 mRNA expression (JNK1 mRNA): at least 88%
- RNA % Inhibition (JNK1 mRNA; t = 48 h, 300 nM for initial 20 hours then 200 nM for 4 hours): > 70%
- RNA % Inhibition (JNK1 mRNA; t = 72 h): > 70%
- Protein % Inhibition (JNK1 protein): 71.6%

Compound: G^ST^SG^SC^SG^SC^SG^SC^SG^SA^SG^SC^SC^SC^SG^SA^SA^SA^ST^SC (GTGCGCGCGAGCCCGAAATC; DNA, all phosphorothioate, methylation of C not given here) [ISIS 14319, 12560 scrambled control, 2′-deoxy-phosphorothioate, reference compound]
- dose- and sequence-dependent response on JNK2 mRNA levels (JNK2 mRNA): neither of the control oligonucleotides effect any consistent response

Compound: G^SA^SC^ST^ST^ST^SG^SG^SC^SC^ST^SG^SG^SC^SC^SC^SG^SG^SA^SC (GACTTTGGCCTGGCCCGGAC; DNA, all phosphorothioate, methylation of C not given here) [ISIS 14318, 12560 sense control, 2′-deoxy-phosphorothioate, reference compound]
- dose- and sequence-dependent response on JNK2 mRNA levels (JNK2 mRNA): neither of the control oligonucleotides effect any consistent response
